Experimental findings from PubChem BioAssay AID210 (DTP/NCI, 2004) are described below.

Toxic doses and inconclusive results are not listed.

For this assay, the system named is CD2F1 mice, ip Colon 26 adenocarcinoma, median survival T/C. In words: NCI In Vivo Anticancer Drug Screen. Data for tumor model Colon 26 Adenocarcinoma (intraperitoneal) in CD2F1 (CDF1) mice. The settings on record: endpoint: median survival time, higher = longer survival. The protocol:
The antitumor activity of compounds was measured in mice bearing transplantable tumors. Survival or tumor size were measured and the results are expressed as the measurement made in the treated group (T) divided by the measurement made in the vehicle treated control group (C). The tumor model used in this assay is Colon 26 Adenocarcinoma (intraperitoneal) in CD2F1 (CDF1) mice

[1] abbreviates: dose: 25.0 mg/kg/injection, schedule: Q01DX005 (ip), vehicle: saline.
[2] abbreviates: dose: 25.0 mg/kg/injection, schedule: Q04DX003 (ip), vehicle: saline.
Where [3] appears, read: dose: 50.0 mg/kg/injection, schedule: Q01DX005 (ip), vehicle: saline.
[4] abbreviates: dose: 50.0 mg/kg/injection, schedule: Q04DX003 (ip), vehicle: saline.
The mark [5] stands for this setting: dose: 100.0 mg/kg/injection, schedule: Q04DX003 (ip), vehicle: saline.
The mark [6] stands for this setting: dose: 12.5 mg/kg/injection, schedule: Q04DX003 (ip), vehicle: saline.
The mark [7] stands for this setting: dose: 25.0 mg/kg/injection, schedule: Q04DX003 (ip), vehicle: saline with Tween-80.
The mark [8] stands for this setting: dose: 50.0 mg/kg/injection, schedule: Q04DX003 (ip), vehicle: saline with Tween-80.
Where [9] appears, read: dose: 100.0 mg/kg/injection, schedule: Q04DX003 (ip), vehicle: saline with Tween-80.

For the compound `O=C1C=CN(C2OC(CO)C(O)C2O)C(=O)C1` (stereo not given), the T/C under setting [1] was 109 % of control; the T/C under setting [2] was 112 % of control; the T/C under setting [3] was 102 % of control; the T/C under setting [4] was 109 % of control; the T/C (dose: 100.0 mg/kg/injection, schedule: Q01DX005 (ip), vehicle: saline) is 98 % of control; the T/C under setting [5] is 106 % of control. In addition, the T/C was 106 % of control (dose: 200.0 mg/kg/injection, schedule: Q01DX005 (ip), vehicle: saline); 102 % of control (dose: 200.0 mg/kg/injection, schedule: Q04DX003 (ip), vehicle: saline); 102 % of control (dose: 400.0 mg/kg/injection, schedule: Q01DX005 (ip), vehicle: saline); 109 % of control (dose: 400.0 mg/kg/injection, schedule: Q04DX003 (ip), vehicle: saline).
In the case of `O=[N+]([O-])O.[Ga]`, the T/C (dose: 12.5 mg/kg/injection, schedule: Q01DX005 (ip), vehicle: saline) was 97 % of control; the T/C under setting [6] was 103 % of control; the T/C under setting [1] was 96 % of control; the T/C under setting [2] was 108 % of control; the T/C under setting [3] is 87 % of control; the T/C under setting [4] is 106 % of control. Under setting [5], the T/C is 87 % of control.
Take `O=NN(CCCl)C(=O)NC1CCCCC1`: the T/C is, setting by setting: (dose: 10.0 mg/kg/injection, schedule: Q04DX003 (ip), vehicle: carboxymethylcellulose (CMC)) 121 % of control; (dose: 40.0 mg/kg/injection, schedule: Q04DX003 (ip), vehicle: carboxymethylcellulose (CMC)) 196 % of control; (dose: 80.0 mg/kg/injection, schedule: Q04DX003 (ip), vehicle: carboxymethylcellulose (CMC)) 159 % of control.
Take `COC(=O)[C@@]12OC[C@]34[C@H]([C@@H](O)[C@@H]1O)[C@@]1(C)CC(=O)C(O)=C(C)[C@@H]1C[C@H]3OC(=O)[C@H](OC(=O)/C=C(\C)C(C)C)[C@@H]24`: the T/C reads like this: (dose: 0.66 mg/kg/injection, schedule: Q04DX003 (iv), vehicle: saline with Tween-80) 97 % of control; (dose: 1.0 mg/kg/injection, schedule: Q04DX003 (iv), vehicle: saline with Tween-80) 94 % of control; (dose: 1.5 mg/kg/injection, schedule: Q04DX003 (iv), vehicle: saline with Tween-80) 94 % of control; (dose: 2.3 mg/kg/injection, schedule: Q04DX003 (iv), vehicle: saline with Tween-80) 92 % of control; (dose: 3.5 mg/kg/injection, schedule: Q04DX003 (iv), vehicle: saline with Tween-80) 96 % of control.
For `O=C1c2ccccc2C(=O)c2c(NCCNCCO)ccc(O)c21`, the T/C is 162 % of control (dose: 1.88 mg/kg/injection, schedule: Q01DX009 (ip), vehicle: acid diluted with saline); 152 % of control (dose: 2.0 mg/kg/injection, schedule: Q01DX009 (ip), vehicle: acid diluted with saline); 177 % of control (dose: 3.75 mg/kg/injection, schedule: Q01DX009 (ip), vehicle: acid diluted with saline); 212 % of control (dose: 4.0 mg/kg/injection, schedule: Q01DX009 (ip), vehicle: acid diluted with saline); 196 % of control (dose: 7.5 mg/kg/injection, schedule: Q01DX009 (ip), vehicle: acid diluted with saline); 245 % of control (dose: 8.0 mg/kg/injection, schedule: Q01DX009 (ip), vehicle: acid diluted with saline). Further, the T/C runs as follows: (dose: 15.0 mg/kg/injection, schedule: Q01DX009 (ip), vehicle: acid diluted with saline) 182 % of control; (dose: 16.0 mg/kg/injection, schedule: Q01DX009 (ip), vehicle: acid diluted with saline) 263 % of control.
For `CN(C)CCCNc1cccc2c1C(=O)c1cccc(NCCCN(C)C)c1C2=O`, the T/C runs as follows: (dose: 8.0 mg/kg/injection, schedule: Q01DX009 (ip), vehicle: saline) 106 % of control; (dose: 16.0 mg/kg/injection, schedule: Q01DX009 (ip), vehicle: saline) 100 % of control; (dose: 32.0 mg/kg/injection, schedule: Q01DX009 (ip), vehicle: saline) 87 % of control.
Consider `CC/C(=C(/CC)c1ccc(O)cc1)c1ccc(O)cc1`, for which the T/C under setting [7] is 91 % of control, the T/C under setting [8] is 103 % of control and the T/C under setting [9] is 89 % of control.
Consider `C=CC(=O)N1CN(C(=O)C=C)CN(C(=O)C=C)C1`, for which the T/C runs as follows: (dose: 3.13 mg/kg/injection, schedule: Q04DX003 (ip), vehicle: saline with Tween-80) 115 % of control; (dose: 6.25 mg/kg/injection, schedule: Q04DX003 (ip), vehicle: saline with Tween-80) 110 % of control; (dose: 12.5 mg/kg/injection, schedule: Q04DX003 (ip), vehicle: saline with Tween-80) 106 % of control; under setting [6], 122 % of control.
Regarding `Clc1ccc(C(c2ccccc2Cl)C(Cl)Cl)cc1` (stereo not given), the T/C by setting is: under setting [7], 110 % of control; under setting [8], 98 % of control; under setting [9], 96 % of control; (dose: 200.0 mg/kg/injection, schedule: Q04DX003 (ip), vehicle: saline with Tween-80) 104 % of control; (dose: 400.0 mg/kg/injection, schedule: Q04DX003 (ip), vehicle: saline with Tween-80) 96 % of control.
With `OC(C1CO1)C(O)C1CO1` (stereo not given), the T/C is 110 % of control (dose: 0.5 mg/kg/injection, schedule: Q04DX003 (ip), vehicle: saline); 109 % of control (dose: 1.0 mg/kg/injection, schedule: Q04DX003 (ip), vehicle: saline); 165 % of control (dose: 7.6 mg/kg/injection, schedule: Q07DX003 (iv), vehicle: saline); 338 % of control (dose: 8.0 mg/kg/injection, schedule: Q04DX003 (ip), vehicle: saline); 193 % of control (dose: 12.0 mg/kg/injection, schedule: Q07DX003 (iv), vehicle: saline).
For the compound `CCOC(=O)c1c[nH]c2oc(/C=N/N3CC(CN4CCOCC4)OC3=O)cc2c1=O` (stereo not given), the T/C by setting is: (dose: 12.5 mg/kg/injection, schedule: Q04DX003 (ip), vehicle: suspension in saline) 97 % of control; (dose: 25.0 mg/kg/injection, schedule: Q04DX003 (ip), vehicle: suspension in saline) 90 % of control; (dose: 50.0 mg/kg/injection, schedule: Q04DX003 (ip), vehicle: suspension in saline) 96 % of control; (dose: 100.0 mg/kg/injection, schedule: Q04DX003 (ip), vehicle: suspension in saline) 90 % of control; (dose: 200.0 mg/kg/injection, schedule: Q04DX003 (ip), vehicle: suspension in saline) 101 % of control; (dose: 400.0 mg/kg/injection, schedule: Q04DX003 (ip), vehicle: suspension in saline) 101 % of control.
Take `CS(=O)(=O)OCCCNCCCOS(C)(=O)=O`: the T/C is 194 % of control (dose: 18.75 mg/kg/injection, schedule: Q04DX003 (ip), vehicle: saline); 241 % of control (dose: 37.5 mg/kg/injection, schedule: Q04DX003 (ip), vehicle: saline); 338 % of control (dose: 75.0 mg/kg/injection, schedule: Q04DX003 (ip), vehicle: saline); 338 % of control (dose: 150.0 mg/kg/injection, schedule: Q04DX003 (ip), vehicle: saline).
Consider `CCN(CC)CCNc1ccc(C)c2sc3ccccc3c(=O)c12`, for which the T/C by setting is: (dose: 25.0 mg/kg/injection, schedule: Q04DX002 (ip), vehicle: suspension in saline) 102 % of control; (dose: 50.0 mg/kg/injection, schedule: Q04DX002 (ip), vehicle: suspension in saline) 105 % of control; (dose: 100.0 mg/kg/injection, schedule: Q04DX002 (ip), vehicle: suspension in saline) 103 % of control; (dose: 200.0 mg/kg/injection, schedule: Q04DX002 (ip), vehicle: suspension in saline) 119 % of control.
Turning to `CCCCCCCC(=O)OCC(=O)[C@]1(O)Cc2c(O)c3c(c(O)c2[C@@H](OC2CC(N)C(O)C(C)O2)C1)C(=O)c1c(OC)cccc1C3=O` (stereo not given in full), the T/C (dose: 4.5 mg/kg/injection, schedule: Q07DX003 (iv), vehicle: saline) was 112 % of control and the T/C (dose: 7.0 mg/kg/injection, schedule: Q07DX003 (iv), vehicle: saline) was 112 % of control.
For `Cc1c2oc3c(C)c([N+](=O)[O-])cc(C(=O)NC4C(=O)NC(C(C)C)C(=O)N5CCCC5C(=O)N(C)CC(=O)N(C)C(C(C)C)C(=O)OC4C)c3nc-2c(C(=O)NC2C(=O)NC(C(C)C)C(=O)N3CCCC3C(=O)N(C)CC(=O)N(C)C(C(C)C)C(=O)OC2C)c(N)c1=O` (stereo not given), the T/C (dose: 500.0 micrograms/kg/injection, schedule: Q01DX001 (ip), vehicle: saline + alcohol) is 112 % of control.
